Assay results: patent US20060281771A1, “SYNERGISTIC MODULATION OF FLT3 KINASE USING AMINOQUINOLINE AND AMINOQUINAZOLINE KINASE MODULATORS” (priority 2005, published 2006)

Target: T1, wild-type FLT3 phosphorylation in Baf3 FLT3 cells (Homo sapiens, UniProt P36888)
T1 construct: host or cells: Baf3 (murine B cell lymphoma line)
T1 sequence (P36888 27-993): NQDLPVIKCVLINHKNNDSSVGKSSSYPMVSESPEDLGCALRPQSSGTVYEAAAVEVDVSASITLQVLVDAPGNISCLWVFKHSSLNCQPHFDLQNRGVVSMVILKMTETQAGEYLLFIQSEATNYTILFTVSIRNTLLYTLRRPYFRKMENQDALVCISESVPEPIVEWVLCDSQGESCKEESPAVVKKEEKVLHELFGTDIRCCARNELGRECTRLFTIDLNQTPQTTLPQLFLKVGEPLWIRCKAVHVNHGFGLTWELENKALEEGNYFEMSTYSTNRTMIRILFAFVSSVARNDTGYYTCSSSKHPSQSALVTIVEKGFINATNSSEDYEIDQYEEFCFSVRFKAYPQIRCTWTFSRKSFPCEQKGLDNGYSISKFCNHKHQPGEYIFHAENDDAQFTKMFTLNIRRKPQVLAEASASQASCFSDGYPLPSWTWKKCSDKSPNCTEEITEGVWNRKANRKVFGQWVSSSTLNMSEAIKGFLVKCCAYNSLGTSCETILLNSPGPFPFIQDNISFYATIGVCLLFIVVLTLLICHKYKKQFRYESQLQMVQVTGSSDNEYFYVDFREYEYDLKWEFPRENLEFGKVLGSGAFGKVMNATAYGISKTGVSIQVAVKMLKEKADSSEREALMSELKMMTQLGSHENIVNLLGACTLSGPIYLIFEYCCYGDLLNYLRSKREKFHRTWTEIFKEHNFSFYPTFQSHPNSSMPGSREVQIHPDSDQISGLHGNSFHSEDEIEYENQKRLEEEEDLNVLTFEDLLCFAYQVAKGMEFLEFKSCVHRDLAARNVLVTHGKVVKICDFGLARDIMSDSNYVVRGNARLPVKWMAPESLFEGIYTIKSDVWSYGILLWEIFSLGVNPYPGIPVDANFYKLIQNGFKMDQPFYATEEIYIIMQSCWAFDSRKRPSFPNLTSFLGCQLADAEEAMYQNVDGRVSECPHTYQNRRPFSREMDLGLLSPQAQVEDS
Assay: Cell-based FLT3 receptor ELISA
Details: FLT ligand-induced FLT3 phosphorylation
How it was run: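 Baf3 cells stably expressing wild-type human FLT3 were starved 16 h in 0.5% serum with 0.01 ng/mL IL-3, given compound for 1 h, then stimulated with 100 ng/mL FLT ligand for 10 min at 37 °C. Lysates were captured on anti-FLT3 plates and probed with HRP anti-phosphotyrosine (4G10), read by chemiluminescence. IC50 came from sigmoidal variable-slope fits of triplicates.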

IC50 [nM] | SMILES
163 | CCN(CC)CC#Cc1ccc2ncnc(N3CCC(OC(=O)Nc4ccc(C(C)C)cc4)C3)c2c1 (stereo not drawn) [Compound 17, (4-Isopropyl-phenyl)-3-carbamic acid 1-[6-(3-diethylamino-prop-1-ynyl)-quinazolin-4-yl]-pyrrolidin-3-yl ester]
89 | COc1cc2ncnc(N3CCC(C(=O)Nc4ccc(C(C)C)cc4)CC3)c2cc1OC [Compound 13, 1-(6,7-Dimethoxy-quinazolin-4-yl)-piperidine-4-carboxylic acid (4-isopropyl-phenyl)-amide]
1100 | COc1cc2ncnc(N3CCCC(OC(=O)Nc4ccc(C(C)C)cc4)C3)c2cc1OC (stereo not drawn) [Compound 31, (4-Isopropyl-phenyl)-carbamic acid 1-[1-(6,7-dimethoxy-quinazolin-4-yl)-piperidin-3-yl]ester]
